Patent US9247741B2, “Use of macrocyclic picolinamides as fungicides” (DOW AGROSCIENCES LLC, priority 2013, dated 2016)

Assays:
[1] = system: Glomerella lagenarium; Anamorph: Colletotrichum lagenarium; assay: Cucumber anthracnose (COLLLA) disease control; format: in vivo; settings: Colletotrichum orbiculare, 24 h, 1 Day Protectant, read-out: COLLLA disease control rating
Method: Technical grades of materials were dissolved in acetone, which were then mixed with nine volumes of water containing 110 ppm Triton X-100. The fungicide solutions were applied onto wheat seedlings using an automated booth sprayer to run-off. All sprayed plants were allowed to air dry prior to further handling. All fungicides were evaluated using the aforementioned method for their activity vs. all target diseases. Wheat leaf blotch and brown rust activity were also evaluated using track spray applications, in which case the fungicides were formulated as EC formulations, containing 0.1% Trycol 5941 in the spray solutions. Wheat plants (variety Yuma) were grown from seed in a greenhouse in 50% mineral soil/50% soil-less Metro mix until the first leaf was fully emerged, with 7-10 seedlings per pot. These plants were inoculated with an aqueous spore suspension of Septoria tritici either prior to or after fungicide treatments. After inoculation the plants were kept in 100% relative humidity (one day in a dark dew chamber followed by two to three days in a lighted dew chamber at 20° C.) to permit spores to germinate and infect the leaf. The plants were then transferred to a greenhouse set at 20° C. for disease to develop. When disease symptoms were fully expressed on the l^st leaves of untreated plants, infection levels were assessed on a scale of 0 to 100 percent disease severity. Percent disease control was calculated using the ratio of disease severity on treated plants relative to untreated plants. Evaluation of Fungicidal Activity: Cucumber Anthracnose (Glomerella lagenarium; Anamorph: Colletotrichum lagenarium; Bayer Code COLLLA) Cucumber seedlings (variety Bush Pickle) were propagated in soil-less Metro mix, with each pot having one plant, and used in the test when 12 to 14 days old. Test plants were inoculated with an aqueous spore suspension of Colletotrichum lagenarium 24 hr after fungicide treatments. After inoculation the plants were kept in a dew room at 22° C. with 100% relative humidity for 48 hr to permit spores to germinate and infect the leaf. The plants were then transferred to a growth room set at 22° C. for disease to develop. Fungicide formulation, application and disease assessment on the sprayed leaves followed the procedures as described in the Example A.

[2] = system: Venturia inaequalis; assay: Apple scab (VENTIN) disease control; format: in vivo; settings: 1 Day Protectant, 100 ppm
Method: Technical grades of materials were dissolved in acetone, which were then mixed with nine volumes of water containing 110 ppm Triton X-100. The fungicide solutions were applied onto wheat seedlings using an automated booth sprayer to run-off. All sprayed plants were allowed to air dry prior to further handling. All fungicides were evaluated using the aforementioned method for their activity vs. all target diseases. Wheat leaf blotch and brown rust activity were also evaluated using track spray applications, in which case the fungicides were formulated as EC formulations, containing 0.1% Trycol 5941 in the spray solutions. Wheat plants (variety Yuma) were grown from seed in a greenhouse in 50% mineral soil/50% soil-less Metro mix until the first leaf was fully emerged, with 7-10 seedlings per pot. These plants were inoculated with an aqueous spore suspension of Septoria tritici either prior to or after fungicide treatments. After inoculation the plants were kept in 100% relative humidity (one day in a dark dew chamber followed by two to three days in a lighted dew chamber at 20° C.) to permit spores to germinate and infect the leaf. The plants were then transferred to a greenhouse set at 20° C. for disease to develop. When disease symptoms were fully expressed on the l^st leaves of untreated plants, infection levels were assessed on a scale of 0 to 100 percent disease severity. Percent disease control was calculated using the ratio of disease severity on treated plants relative to untreated plants. Evaluation of Fungicidal Activity: Apple Scab (Venturia inaequalis; Bayer code […]) Apple seedlings (variety McIntosh) were grown in soil-less Metro mix, with one plant per pot. Seedlings with two expanding young leaves at the top (older leaves at bottom of the plants were trimmed) were used in the test. Plants were inoculated with a spore suspension of Venturia inaequalis 24 hr after fungicide treatment and kept in a 22° C. dew chamber with 100% RH for 48 hr, and then moved to a greenhouse set at 20° C. for disease to develop. Fungicide formulation, application and disease assessment on the sprayed leaves followed the procedures as described in the Example A.

[3] = system: Phakopsora pachyrhizi; assay: Asian soybean rust (PHAKPA) disease control; format: in vivo; settings: 25 ppm; for PHAKPA 1DP disease control rating: 1 Day Protectant; for PHAKPA 3DC disease control rating: 3 Day Curative
Method: Evaluation of Fungicidal Activity: Asian Soybean Rust (Phakopsora pachyrhizi; Bayer Code PHAKPA)
Technical grades of materials were dissolved in acetone, which were then mixed with nine volumes of water containing 0.011% Tween 20. The fungicide solutions were applied onto soybean seedlings using an automated booth sprayer to run-off. All sprayed plants were allowed to air dry prior to further handling.
Soybean plants (variety Williams 82) were grown in soil-less Metro mix, with one plant per pot. Two weeks old seedlings were used for testing. Plants were inoculated either 3 days prior to or 1 day after fungicide treatments. Plants were incubated for 24 h in a dark dew room at 22° C. and 100% RH then transferred to a growth room at 23° C. for disease to develop. Disease severity was assessed on the sprayed leaves.

| SMILES | pest or weed control at 100 ppm [1] | VENTIN disease control rating [2] | melting point | PHAKPA 1DP disease control rating [3] | PHAKPA 3DC disease control rating [3] |
| --- | --- | --- | --- | --- | --- |
| CCCC[C@H]1[C@H](C)OC(=O)[C@@H](NC(=O)c2nccc(OC)c2OCOC(C)=O)CCC[C@@H]1Oc1ccccc1 [Compound 33] | > 70% | – | – | – | – |
| COc1ccnc(C(=O)N[C@H]2CCC[C@H](OCC3CC3)[C@@H](Cc3ccc(F)cc3)[C@H](C)OC2=O)c1OCOC(C)=O [Compound 61] | > 70% | – | – | – | – |
| CCCO[C@H]1CCC[C@H](NC(=O)c2nccc(OC)c2OC(C)=O)C(=O)O[C@@H](C)[C@@H]1CCC(C)C [Compound 74, 2-(((3S,7S,8S,9S)-8-isopentyl-9-methyl-2-oxo-7-propoxyoxonan-3-yl)carbamoyl)-4-methoxypyridin-3-yl acetate] | > 70% | A (>70) | 46 to 50 °C | A (>70) | B (≦70) |
| CCCC[C@H]1[C@H](C)OC(=O)[C@@H](NC(=O)c2nccc(OC)c2OCOC(C)=O)CCC[C@@H]1OCC1CC1 [Compound 73] | > 70% | – | – | – | – |
| CCCO[C@H]1CCC[C@H](NC(=O)c2nccc(OC)c2OCOC(C)=O)C(=O)O[C@@H](C)[C@@H]1CCC(C)C [Compound 25, ((2-(((3S,7S,8S,9S)-8-isopentyl-9-methyl-2-oxo-7-propoxyoxonan-3-yl)carbamoyl)-4-methoxypyridin-3-yl)oxy)methyl acetate] | > 70% | A (>70) | – | A (>70) | B (≦70) |
| CCCO[C@H]1CCC[C@H](NC(=O)c2nccc(OC)c2OC(C)=O)C(=O)O[C@@H](C)[C@@H]1Cc1ccccc1 [Compound 70] | > 70% | A (>70) | 56 to 61 °C | A (>70) | B (≦70) |
| COc1ccnc(C(=O)N[C@H]2CCC[C@H](Oc3ccccc3)[C@@H](CCC(C)C)[C@H](C)OC2=O)c1OC(C)=O [Compound 36] | > 70% | B (≦70) | – | A (>70) | B (≦70) |
| COc1ccnc(C(=O)N[C@H]2CCC[C@H](Oc3ccccc3)[C@@H](CCC(C)C)[C@H](C)OC2=O)c1OCOC(C)=O [Compound 40] | > 70% | A (>70) | 47 to 51 °C | A (>70) | B (≦70) |
